{"source": "patent US20170071944A1", "about": "“MODULATORS OF TOLL-LIKE RECEPTORS FOR THE TREATMENT OF HIV” (Gilead Sciences, Inc., priority 2015, published 2017)", "test_system": "PBMC cultures from HIV-1 infected subjects on cART", "test": "Induced cytokines and chemokines in PBMC cultures from HIV-1 infected subjects on cART (multiplexed Luminex)", "format": "cell-based, human", "method": "To further characterize the immune modulatory effect of TLR8 agonists in cells from HIV-infected subjects, the production of secreted cytokines and chemokines was measured in PBMCs from 4 HIV-infected subjects on suppressive cART (anonymized participant IDs 180-183). PBMCs were purified, as described in Example 121, and immediately added to tissue culture plates pre-equilibrated at 37° C. with media containing DMSO (vehicle control) or with the TLR8 modulating compound Example 15 at concentrations ranging from 1.0 nM to 10.0 μM. On day 2 after treatment, cell-free culture supernatants were collected and frozen at −80 C for subsequent analysis. Frozen supernatants were thawed at room temperature, and the indicated cytokines and chemokines were quantified with a custom multiplexed xMAP Luminex® assay following the manufacturer's instructions (Thermo Fisher Scientific Inc., Grand Island, N.Y., custom-designed kit).\nData are expressed as geometric mean cytokine values (pg/ml) obtained from 4 subjects' PBMCs. Geometric mean fold-activation from three independent incubation samples for each condition. Fold (fold-activation) is calculated as a ratio of the concentration of cytokine detected in cell culture supernatants from agonist treated samples relative to DMSO treated samples", "key": {"[1]": {"conditions": "Ex 15 3000 nM, day 2, geometric mean, 4 subjects"}, "[2]": {"conditions": "Ex 15 10000 nM, day 2, geometric mean, 4 subjects"}}}
{"smiles": "CCCC[C@H](CO)Nc1nc(N)nc2cccnc12", "note": "[Example 15]", "values": [{"measurement": "IL-18 Fold vs DMSO", "setting": "[1]", "result": 18, "unit": "fold"}, {"measurement": "IL-23 Fold vs DMSO", "setting": "[1]", "result": 19, "unit": "fold"}, {"measurement": "IP-10 pg/ml", "setting": "[1]", "result": 711, "unit": "pg/mL"}, {"measurement": "IP-10 Fold vs DMSO", "setting": "[1]", "result": 3, "unit": "fold"}, {"measurement": "MCP-1 pg/ml", "setting": "[1]", "result": 1646, "unit": "pg/mL"}, {"measurement": "MCP-1 Fold vs DMSO", "setting": "[1]", "result": 25, "unit": "fold"}, {"measurement": "MIP-1α", "setting": "[1]", "result": 21047, "unit": "pg/mL"}, {"measurement": "MIP-1α Fold vs DMSO", "setting": "[1]", "result": 421, "unit": "fold"}, {"measurement": "MIP-1β", "setting": "[1]", "result": 293183, "unit": "pg/mL"}, {"measurement": "MIP-1β Fold vs DMSO", "setting": "[1]", "result": 240, "unit": "fold"}, {"measurement": "MIP-3α", "setting": "[1]", "result": 2141, "unit": "pg/mL"}, {"measurement": "MIP-3α Fold vs DMSO", "setting": "[1]", "result": 82, "unit": "fold"}, {"measurement": "MMP-1 pg/ml", "setting": "[1]", "result": 311, "unit": "pg/mL"}, {"measurement": "MMP-1 Fold vs DMSO", "setting": "[1]", "result": 3, "unit": "fold"}, {"measurement": "TNF-α", "setting": "[1]", "result": 64062, "unit": "pg/mL"}, {"measurement": "TNF-α Fold vs DMSO", "setting": "[1]", "result": 3051, "unit": "fold"}, {"measurement": "GRO-α", "setting": "[2]", "result": 433, "unit": "pg/mL"}, {"measurement": "GRO-α Fold vs DMSO", "setting": "[2]", "result": 19, "unit": "fold"}, {"measurement": "Granzyme B", "setting": "[2]", "result": 644, "unit": "pg/mL"}, {"measurement": "Granzyme B Fold vs DMSO", "setting": "[2]", "result": 3, "unit": "fold"}, {"measurement": "I-TAC", "setting": "[2]", "result": 69, "unit": "pg/mL"}, {"measurement": "I-TAC Fold vs DMSO", "setting": "[2]", "result": 1, "unit": "fold"}, {"measurement": "IFN-α", "setting": "[2]", "result": 4, "unit": "pg/mL"}, {"measurement": "IFN-α Fold vs DMSO", "setting": "[2]", "result": 2, "unit": "fold"}, {"measurement": "IFN-γ", "setting": "[2]", "result": 1478, "unit": "pg/mL"}, {"measurement": "IFN-γ Fold vs DMSO", "setting": "[2]", "result": 59, "unit": "fold"}, {"measurement": "IL-6 pg/ml", "setting": "[2]", "result": 18836, "unit": "pg/mL"}, {"measurement": "IL-8 pg/ml", "setting": "[2]", "result": 1118, "unit": "pg/mL"}, {"measurement": "IL-10 pg/ml", "setting": "[2]", "result": 5167, "unit": "pg/mL"}, {"measurement": "IL-18 pg/ml", "setting": "[2]", "result": 218, "unit": "pg/mL"}, {"measurement": "IL-23 pg/ml", "setting": "[2]", "result": 965, "unit": "pg/mL"}, {"measurement": "IL-1RA", "setting": "[2]", "result": 90289, "unit": "pg/mL"}, {"measurement": "IL-1RA Fold vs DMSO", "setting": "[2]", "result": 25, "unit": "fold"}, {"measurement": "IL-1β", "setting": "[2]", "result": 6611, "unit": "pg/mL"}, {"measurement": "IL-1β Fold vs DMSO", "setting": "[2]", "result": 2204, "unit": "fold"}, {"measurement": "IL-6 Fold vs DMSO", "setting": "[2]", "result": 241, "unit": "fold"}, {"measurement": "IL-8 Fold vs DMSO", "setting": "[2]", "result": 4, "unit": "fold"}, {"measurement": "IL-10 Fold vs DMSO", "setting": "[2]", "result": 304, "unit": "fold"}, {"measurement": "IL-12p70 pg/ml", "setting": "[2]", "result": 113, "unit": "pg/mL"}, {"measurement": "IL-12p70 Fold vs DMSO", "setting": "[2]", "result": 38, "unit": "fold"}, {"measurement": "IL-18 Fold vs DMSO", "setting": "[2]", "result": 13, "unit": "fold"}, {"measurement": "IL-23 Fold vs DMSO", "setting": "[2]", "result": 16, "unit": "fold"}, {"measurement": "IP-10 pg/ml", "setting": "[2]", "result": 587, "unit": "pg/mL"}, {"measurement": "IP-10 Fold vs DMSO", "setting": "[2]", "result": 2, "unit": "fold"}, {"measurement": "MCP-1 pg/ml", "setting": "[2]", "result": 1796, "unit": "pg/mL"}, {"measurement": "MCP-1 Fold vs DMSO", "setting": "[2]", "result": 27, "unit": "fold"}, {"measurement": "MIP-1α", "setting": "[2]", "result": 24365, "unit": "pg/mL"}, {"measurement": "MIP-1α Fold vs DMSO", "setting": "[2]", "result": 487, "unit": "fold"}, {"measurement": "MIP-1β", "setting": "[2]", "result": 239694, "unit": "pg/mL"}, {"measurement": "MIP-1β Fold vs DMSO", "setting": "[2]", "result": 196, "unit": "fold"}, {"measurement": "MIP-3α", "setting": "[2]", "result": 1680, "unit": "pg/mL"}, {"measurement": "MIP-3α Fold vs DMSO", "setting": "[2]", "result": 65, "unit": "fold"}, {"measurement": "MMP-1 pg/ml", "setting": "[2]", "result": 740, "unit": "pg/mL"}, {"measurement": "MMP-1 Fold vs DMSO", "setting": "[2]", "result": 8, "unit": "fold"}, {"measurement": "TNF-α", "setting": "[2]", "result": 23017, "unit": "pg/mL"}, {"measurement": "TNF-α Fold vs DMSO", "setting": "[2]", "result": 1096, "unit": "fold"}, {"measurement": "Peak fold-activation relative to DMSO, IL-12p70", "setting": "Example 15, 1.0 nM to 10.0 μM", "result": 518, "unit": "fold"}, {"measurement": "Peak fold-activation relative to DMSO, IL-18", "setting": "Example 15, 1.0 nM to 10.0 μM", "result": 18, "unit": "fold"}, {"measurement": "Peak fold-activation relative to DMSO, TNF-α", "setting": "Example 15, 1.0 nM to 10.0 μM", "result": 3051, "unit": "fold"}, {"measurement": "Induction of IFN-ω, IL-2, IL-4, IL-5, IL-7, IL-15, IL-17A, IL-21, IL-27, or IL-29 compared to DMSO control", "setting": "Example 15, 1.0 nM to 10.0 μM, did not induce at levels >2-fold", "result": "≤ 2", "unit": "fold"}]}
